Experimental data: patent US9067896B2, “Crystalline forms of 3-(2,6-dichloro-3,5-dimethoxy-phenyl)-1-{6-[4-(4-ethyl-piperazin-1-yl) -phenylamino]-pyrimidin-4-yl}-1-methyl-urea and salts thereof” (Novartis AG, priority 2009, dated 2015)
Structures can show the parent of a compound that is named as a salt. Where two headings read alike, the source gives them in different places.

Experiments:
[1] = Polymorphic stability by XRPD (equilibration, crystallization, evaporation, precipitation, compression, granulation); format: physicochemical; set-up: key to XRPD Result, crystallization by evaporation: —: no change detected; conditions: for XRPD Result, crystallization by evaporation: unstirred; for XRPD after crystallization from hot saturated solution: dissolved at 60° C., cooled in ice bath
Method: Slurries of samples were stirred at high speed for 24 hours at 25±0.5° C., filtered, and the solid collected analyzed by XRPD.
About 20 mg of the phosphate salt (form A) was equilibrated with 2 ml of a variety of solvents for at least 24 h at room temperature. Then the solution was filtered and the residue dried overnight at 50° C. under house vacuum. The solid obtained was investigated by XRPD. […]
About 20 mg of the phosphate salt (form A) was also equilibrated at about 50° C. with 2 ml solvent for at least 24 h. Then the solution was filtered and the residue dried overnight at 50° C. under house vacuum. The solid obtained was investigated by XRPD.
About 20 mg of the phosphate salt (form A) was dissolved in 2 ml solvent at 60° C. The solution was filtered. The clear filtrate obtained was cooled in an ice bath and agitated. The precipitate was collected on a filter, dried and investigated by XRPD.
About 20 mg of the phosphate salt (form A) was mixed with 2 ml solvent at 25° C. After stirring overnight, the solution was filtered. The filtrate was placed under nitrogen flow to evaporate the solvent. The residual solid was collected and investigated. The above evaporation was performed without stirring. Upon evaporation from THF/water (1:1) without stirring, a solid with XRPD pattern similar to that of the B form (see FIG. 1C), was obtained once. Subsequently, under these conditions, amorphous material, rather than form B, was obtained.
The same experiments (as described above for the 25° C. evaporation) were performed at 50° C.
Two different solvent combinations were tested. The phosphate salt (form A) was dissolved in DMSO where its solubility was high. A solvent (the anti-solvent) in which the form A was highly insoluble was added to the solution. The precipitate was collected on a filter, dried, and investigated by XRPD.
The phosphate salt (form A, 300 mg) was compressed for 5 minutes at 4000 pounds with a hydraulic press (diameter of the tablets 8 mm).
A solvent (water or ethanol) was added drop wise to the phosphate salt (form A) placed in a mortar until the solid in the mortar was sufficiently wet, and ground using a pestle until a paste-like consistency was obtained. The paste was dried at around 40° C. and under reduced pressure for >8 hours.

Solid state stability = format: physicochemical; conditions: one week at 80° C., sealed containers and 75% relative humidity, alone and with excipients as 1% mixture
Method: In the solid state, the samples were stressed for one week at 80° C., in sealed containers and under 75% relative humidity. […] The amount of degradation products of the anhydrous free base as assessed by HPLC was 1% or less (based on peak area), while the degradation of the phosphate salt accounted for 1.4% or less.

Solution stability = format: physicochemical; conditions: 1 week at 50° C.
Method: The solution stability of the free base was tested in buffers ranging from pH 1 to pH 9 for 1 week at 50° C. At pH 5 and higher, the free base was stable, and after accounting for minor initial impurities, degradation was less than 2%. At pH 3, degradation was about 4% and at pH 1, degradation was about 15%. The stability was also tested in water and several organic solvents (1 week at 50° C.).
Without being bound by mechanism, the stability difference between the free base and phosphate salt may be due to the higher aqueous solubility of the phosphate salt compared to the free base, as well as the tendency of the phosphate salt to cause the pH of water to decrease, which may increase the rate of degradation.

[2] = Intrinsic dissolution rate; format: physicochemical; conditions: 37° C., disc 200 rpm, 290 nm
Method: The intrinsic dissolution rate measurements were carried out in 0.5 cm^2 VanKel punch and die assemblies at a pellet pressure of 2000 pounds. […]
The intrinsic dissolution rate was determined for the phosphate salt in water, pH=6.8 and 0.1N HCl, and for the free base monohydrate in pH=6.8, 4.5 and 0.1N HCl. The measurements were carried out on a VanKel instrument using a Cary UV/VIS spectrophotometer (Table 2).

[3] = Pharmacokinetics / bioavailability in rats; format: in vivo; conditions: for concentration at 8 h: read-out: Clast [μmol/L ± SE]; for Cmax: read-out: Cmax [μmol/L ± SE]
Method: The higher water solubility of the phosphate salt compared to the free base (and other acid salts, as described above) led to the development of a solution formulation (or composition), which would not be feasible with the free base due to solubility restrictions. For this experiment, the phosphate salt was prepared as follows. In a glass vial, 10.7 mg of the free base was dissolved in 4 ml THF. Phosphoric acid (1.76 ml) in acetone (0.01M) was added. The mixture was warmed to 50° C. for about 2 minutes. The vial was left open for partial evaporation at room temperature. Overnight, a suspension was formed, which was filtered yielding about 5.5 mg of an off-white powder. The bioavailabilities, in rats, of the active agents (the free base and its phosphate salt), formulated variously, are tabulated below (Table 10).

[4] = rat, in vivo, po, 8.57 mg/kg, rats, phosphate salt p.o., supension (water containing 0.5% HPMC) [8.57 mg/kg]
[5] = rat, in vivo, po, 10 mg/kg, pH 4.7, rats, p.o., solution (PEG300/acetate buffer pH 4.7 1:1) [10 mg/kg]
[6] = rats, p.o., solution (PEG300/acetate buffer pH 4.7 1:1) [10 mg/kg]
[7] = rats, phosphate salt p.o., supension (water containing 0.5% HPMC) [8.57 mg/kg]

XRPD after compression ([1]; 300 mg, 5 minutes at 4000 pounds, hydraulic press): No change of crystalline modification | XRPD after crystallization by evaporation ([1]; 25° C., solution stirred during evaporation): form A was consistently obtained | XRPD after crystallization by evaporation ([1]; 25° C., without stirring, 1:1 solutions of water with ethanol, 2-propanol, acetone, tetrahydrofuran): amorphous material was obtained | XRPD after crystallization by evaporation ([1]; 50° C., solution stirred): Form A was also obtained | XRPD Result, crystallization by evaporation ([1]; 50° C., 2-propanol/water 1:1): — | XRPD Result, crystallization by evaporation ([1]; 50° C., Acetone/water 1:1): — | XRPD Result, crystallization by evaporation ([1]; 50° C., Acetonitrile/water 1:1): Amorphous | XRPD Result, crystallization by evaporation ([1]; 50° C., Ethanol/water 1:1): Amorphous | XRPD Result, crystallization by evaporation ([1]; 50° C., Methanol/water 1:1): — | XRPD Result, crystallization by evaporation ([1]; 50° C., Tetrahydrofuran/water 1:1): — | XRPD after equilibration with solvents ([1]; at least 24 h at about 50° C., solvents of Table 7): No new XRPD pattern was observed | XRPD after equilibration with solvents ([1]; at least 24 h at room temperature, solvents of Table 6): No new XRPD pattern was observed | XRPD after crystallization from hot saturated solution ([1]; 1:1 solutions of water with methanol, ethanol, 2-propanol, acetone, tetrahydrofuran): No change in polymorphic form | XRPD after crystallization from hot saturated solution ([1]; DMSO): form change noted | XRPD after precipitation by addition of anti-solvent ([1]; dissolved in DMSO, anti-solvents methanol, ethanol, isopropanol, acetone, acetonitrile, THF, ethyl acetate, propyl acetate, toluene, methyl t-butyl ether, 1,4-dioxane, methylene chloride): No change in Form | XRPD after granulation ([1]; wetted with water or ethanol, ground, dried at around 40° C.): no changes in the XRPD spectra | amount of degradation products by HPLC (peak area) (Solid state stability): ≤ 1.4% | degradation in solution (Solution stability; 1:1 acetonitrile/water, listed as phosphate salt): ~70% | degradation in solution (Solution stability; acetonitrile, form A): stable | degradation in solution (Solution stability; methanol, form A): about 8% | degradation in solution (Solution stability; water, listed as phosphate salt): about 45% | Intrinsic DR value ([2]; HCl 0.1N): 1.0661 mg/min/cm^2 | Intrinsic DR value ([2]; Water): 0.3279 mg/min/cm^2 | Intrinsic DR value ([2]; pH = 6.8): 0.0056 mg/min/cm^2 | bioavailability relative to the free base ([3]; oral administration): ~2 fold | AUC(0-inf) [3, 4]: 1.23 µM·h | Tmax [3, 4]: 3 h | concentration at 8 h [3, 4]: 0.062 ± 0.006 µmol/L | Cmax [3, 4]: 0.15 ± 0.031 µmol/L | half-life ([3]; rat, in vivo, po, 8.57 mg/kg, rats, phosphate salt p.o., supension (water containing 0.5% HPMC) [8.57 mg/kg], read-out: t1/2 terminal elimination (converted)): 4.4 h | AUC(0-inf) [3, 5]: 2.52 µM·h | Tmax [3, 5]: 4 h | concentration at 8 h [3, 5]: 0.148 ± 0.018 µmol/L | Cmax [3, 5]: 0.263 ± 0.083 µmol/L | AUC (0-∞) dose ^A [(h · μmol/L)/(mg/kg)] [3, 6]: 0.25 (h · μmol/L)/(mg/kg) | BAV f [%] [3, 6]: 51% | t1/2 terminal elimination [3, 6]: 4.8 h | tlast [3, 6]: 8 h | AUC (0-∞) dose ^A [(h · μmol/L)/(mg/kg)] [3, 7]: 0.14 (h · μmol/L)/(mg/kg) | BAV f [%] [3, 7]: 29 ± 3% | tlast [3, 7]: 8 h
SMILES: CCN1CCN(c2ccc(Nc3cc(N(C)C(=O)Nc4c(Cl)c(OC)cc(OC)c4Cl)ncn3)cc2)CC1 [Phosphate salt (form A)]
